Ten compounds from BindingDB's records for doi:10.1016/j.ejmech.2018.12.027 (National Taiwan University, 2019) can be followed below.

The IC50 is the midpoint of a concentration-inhibition curve. The low end stands for inhibition by little substance, the high end for a need for much substance.

A short description of this experiment: Inhibition of influenza A virus (A/WSN/1933(H1N1)) neuraminidase using MUNANA as fluorogenic substrate preincubated for 10 mins followed by substrate addition and measured after 15 mins by fluorometric assay.

With `CCC(CC)O[C@@H]1C=C(S(C)(=O)=O)C[C@H](N)[C@H]1NC(C)=O`, the IC50 amounted to 0.18 µM.

Turning to `CCC(CC)O[C@@H]1C=C(S(=O)(=O)O)C[C@H](N)[C@H]1NC(C)=O`, half-maximal inhibition (IC50) was put at 0.0018 µM. Then `CCC(CC)O[C@@H]1C=C(S(=O)(=O)CCc2ccncc2)C[C@H](NC(=N)N)[C@H]1NC(C)=O`, with 0.0098 µM; and `CCC(CC)O[C@@H]1C=C(S(=O)(=O)O)C[C@H](NC(=N)N)[C@H]1NC(C)=O`, with 0.0013 µM; and `CCC(CC)O[C@@H]1C=C([B-](F)(F)F)C[C@H](N)[C@H]1NC(C)=O`, with 3.4 µM. Then `CCC(CC)O[C@@H]1C=C(S(=O)(=O)CCc2ccncc2)C[C@H](N)[C@H]1NC(C)=O`, with 0.33 µM; and `CCC(CC)O[C@@H]1C=C([B-](F)(F)F)C[C@H](NC(=N)N)[C@H]1NC(C)=O`, with 0.02 µM. As to `CCCCOS(=O)(=O)C1=C[C@@H](OC(CC)CC)[C@H](NC(C)=O)[C@@H](N)C1`, 0.027 µM corresponded to half-maximal inhibition (IC50).

For `CCCCOS(=O)(=O)C1=C[C@@H](OC(CC)CC)[C@H](NC(C)=O)[C@@H](NC(=N)N)C1`, 0.0033 µM corresponded to half-maximal inhibition (IC50). Consider `CCC(CC)O[C@@H]1C=C(B(O)O)C[C@H](NC(=N)N)[C@H]1NC(C)=O`, for which the IC50 stood at 0.028 µM.
